In PubChem BioAssay AID330 (DTP/NCI, 2004):
Values joined by “and” are separate entries in the source; they are usually repeats but may differ in a detail not shown here. Equal values may be shown once. Toxic doses and inconclusive results are not listed.

Tested on: P388 leukemia ip, CD2F1 mice, survival T/C
Assay: NCI In Vivo Anticancer Drug Screen. Data for tumor model P388 Leukemia (intraperitoneal) in CD2F1 (CDF1) mice
Details: endpoint: median survival time, higher = longer survival
Outline: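 Mice carrying the transplanted tumor received test compound or vehicle. Survival was recorded in each group, and the value is the treated-group measurement divided by that of the vehicle-treated control group.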

[1] = dose: 50.0 mg/kg/injection, schedule: Q01DX009 (ip), vehicle: saline with Tween-80
[2] = dose: 100.0 mg/kg/injection, schedule: Q01DX009 (ip), vehicle: saline with Tween-80
[3] = dose: 200.0 mg/kg/injection, schedule: Q01DX009 (ip), vehicle: saline with Tween-80

What does the source list for O=C(Nc1ccc(Cl)cc1)OCC12COCN1COC2?
T/C [1]: 87 % of control; T/C [2]: 95 % of control

O=C(Nc1n[nH]c(NC(=O)c2ccccc2)n1)c1ccccc1 was tested. Which T/C (dose: 50.0 mg/kg/injection, schedule: Q01DX005 (ip), vehicle: Klucel (hydroxypropylcellulose) (HPC)) did it give?
Its T/C is 92 % of control.

What about the T/C (dose: 100.0 mg/kg/injection, schedule: Q01DX005 (ip), vehicle: Klucel (hydroxypropylcellulose) (HPC)) of the same compound?
Its T/C is 88 % of control.

For C=C(CN1CCCC1)C(=O)c1ccc(OC)cc1, which T/C (dose: 0.93 mg/kg/injection, schedule: Q01DX005 (ip), vehicle: saline) is on record?
The T/C was 97 % of control.

And the T/C (dose: 1.87 mg/kg/injection, schedule: Q01DX005 (ip), vehicle: saline)?
Its T/C is 117 % of control.

What about the T/C (dose: 3.75 mg/kg/injection, schedule: Q01DX005 (ip), vehicle: saline) of the same compound?
Its T/C is 108 % of control.

What does the source list for CC1OC(Nc2ncnc3nc[nH]c23)C(O)C(O)C1NC(=O)CNC(=O)CCCCCCCCCCCC(C)(C)C (centres undefined)?
T/C (dose: 0.25 mg/kg/injection, schedule: Q01DX009 (ip), vehicle: distilled water + Tween-80): 111 % of control and 117 % of control; T/C (dose: 0.5 mg/kg/injection, schedule: Q01DX009 (ip), vehicle: distilled water + Tween-80): 118 % of control; T/C (dose: 1.0 mg/kg/injection, schedule: Q01DX009 (ip), vehicle: distilled water + Tween-80): 166 % of control; T/C (dose: 2.0 mg/kg/injection, schedule: Q01DX009 (ip), vehicle: distilled water + Tween-80): 117 % of control; T/C (dose: 4.0 mg/kg/injection, schedule: Q01DX009 (ip), vehicle: distilled water + Tween-80): 108 % of control and 91 % of control

For Cc1cc(O)c(C(c2ccncc2)c2c(O)cc(C)[nH]c2=O)c(=O)[nH]1, which T/C [1] is on record?
The T/C was 102 % of control.

What about the T/C [2] of the same compound?
The T/C was 95 % of control.

And the T/C [3]?
Its T/C is 94 % of control.

What does the source list for O=C(CNC(=O)c1ccc(Cl)cc1Cl)N/N=C/c1cccc([N+](=O)[O-])c1?
T/C (dose: 3.13 mg/kg/injection, schedule: Q01DX009 (ip), vehicle: saline with Tween-80): 91 % of control; T/C (dose: 6.25 mg/kg/injection, schedule: Q01DX009 (ip), vehicle: saline with Tween-80): 92 % of control; T/C (dose: 12.5 mg/kg/injection, schedule: Q01DX009 (ip), vehicle: saline with Tween-80): 106 % of control

CCOP(=O)(NNP(=O)(OCC)OCC)OCC was tested. Which T/C (dose: 50.0 mg/kg/injection, schedule: Q01DX009 (ip), vehicle: saline) did it give?
The T/C was 106 % of control.

What about the T/C (dose: 100.0 mg/kg/injection, schedule: Q01DX009 (ip), vehicle: saline) of the same compound?
Its T/C is 103 % of control.

What about the T/C (dose: 200.0 mg/kg/injection, schedule: Q01DX009 (ip), vehicle: saline) of the same compound?
Its T/C is 104 % of control.

With C[Si](C)(C)Cn1ccc2ccccc21 as the compound, how does the T/C (dose: 50.0 mg/kg/injection, schedule: Q01DX005 (ip), vehicle: saline with Tween-80) read?
Its T/C is 100 % of control.

What about the T/C (dose: 100.0 mg/kg/injection, schedule: Q01DX005 (ip), vehicle: saline with Tween-80) of the same compound?
Its T/C is 105 % of control.

And the T/C (dose: 200.0 mg/kg/injection, schedule: Q01DX005 (ip), vehicle: saline with Tween-80)?
The T/C was 108 % of control.

Which T/C (dose: 60.0 mg/kg/injection, schedule: Q01DX005 (ip), vehicle: saline with Tween-80) does the source give for CCOC1OCCCC1(C)C (centres undefined) here?
The T/C was 100 % of control.

What about the T/C (dose: 120.0 mg/kg/injection, schedule: Q01DX005 (ip), vehicle: saline with Tween-80) of the same compound?
The T/C was 105 % of control.

And the T/C (dose: 240.0 mg/kg/injection, schedule: Q01DX005 (ip), vehicle: saline with Tween-80)?
Its T/C is 112 % of control.

For CCc1cc(C2C(=O)c3ccccc3C2=O)cc(CC)c1O, which T/C (dose: 100.0 mg/kg/injection, schedule: Q04DX002 (ip), vehicle: saline) is on record?
The T/C was 107 % of control.

And the T/C (dose: 200.0 mg/kg/injection, schedule: Q04DX002 (ip), vehicle: saline)?
The T/C was 105 % of control.

What about the T/C (dose: 400.0 mg/kg/injection, schedule: Q04DX002 (ip), vehicle: saline) of the same compound?
The T/C was 110 % of control.

CC(C)[CH2][Sn]1([CH2]C(C)C)[O]CCNCC[O]1 was tested. Which T/C (dose: 0.78 mg/kg/injection, schedule: Q01DX009 (ip), vehicle: saline) did it give?
The T/C was 105 % of control.

What about the T/C (dose: 1.56 mg/kg/injection, schedule: Q01DX009 (ip), vehicle: saline) of the same compound?
The T/C was 109 % of control.

And the T/C (dose: 3.12 mg/kg/injection, schedule: Q01DX009 (ip), vehicle: saline)?
The T/C was 88 % of control.

Which results are given for O=c1c(-c2ccc3c(c2)OCO3)coc2c3c(ccc12)OCO3?
T/C (dose: 8.0 mg/kg/injection, schedule: Q01DX005 (ip), vehicle: Klucel (hydroxypropylcellulose) (HPC)): 93 % of control; T/C (dose: 16.0 mg/kg/injection, schedule: Q01DX005 (ip), vehicle: Klucel (hydroxypropylcellulose) (HPC)): 100 % of control; T/C (dose: 32.0 mg/kg/injection, schedule: Q01DX005 (ip), vehicle: Klucel (hydroxypropylcellulose) (HPC)): 94 % of control; T/C (dose: 64.0 mg/kg/injection, schedule: Q01DX005 (ip), vehicle: Klucel (hydroxypropylcellulose) (HPC)): 88 % of control

For NC(C(=O)O)C(=O)c1ccccc1 (centres undefined), which T/C [2] is on record?
The T/C was 100 % of control.

What about the T/C [3] of the same compound?
Its T/C is 100 % of control.

And the T/C (dose: 400.0 mg/kg/injection, schedule: Q01DX009 (ip), vehicle: saline with Tween-80)?
Its T/C is 118 % of control.

How did the T/C (dose: 12.5 mg/kg/injection, schedule: Q01DX009 (ip), vehicle: Klucel (hydroxypropylcellulose) (HPC)) turn out when CCOC(=O)/C(C#N)=C(/SC)N1CC1 was run?
Its T/C is 100 % of control.

And the T/C (dose: 25.0 mg/kg/injection, schedule: Q01DX009 (ip), vehicle: Klucel (hydroxypropylcellulose) (HPC))?
Its T/C is 93 % of control.

And the T/C (dose: 50.0 mg/kg/injection, schedule: Q01DX009 (ip), vehicle: Klucel (hydroxypropylcellulose) (HPC))?
The T/C was 110 % of control and 90 % of control.

O=c1cc(-c2ccc(Cl)cc2)c(-c2ccc(Cl)cc2)nn1CCO was tested. Which T/C (dose: 100.0 mg/kg/injection, schedule: Q04DX002 (ip), vehicle: saline with Tween-80) did it give?
Its T/C is 95 % of control.

What about the T/C (dose: 200.0 mg/kg/injection, schedule: Q04DX002 (ip), vehicle: saline with Tween-80) of the same compound?
The T/C was 95 % of control.

And the T/C (dose: 400.0 mg/kg/injection, schedule: Q04DX002 (ip), vehicle: saline with Tween-80)?
The T/C was 89 % of control.

What does the source list for CN(C)c1ccc(N=Nc2ccc3ccc4cccc5ccc2c3c45)cc1?
T/C [1]: 93 % of control; T/C [2]: 89 % of control; T/C [3]: 102 % of control
